Data from ChEMBL document CHEMBL2385010, “Discovery of aryl ureas and aryl amides as potent and selective histamine H3 receptor antagonists for the treatment of obesity (part I)” (Bioorg Med Chem Lett, 2013).
Values after ≈ are worked out from the molar mass of the structure shown.

Assays:
Histamine H3 receptor [1] = molecular target: T1, Histamine H3 receptor (Homo sapiens, UniProt Q9Y5N1); test: Antagonist activity at human histamine H3 receptor expressed in HEK293 cells assessed as inhibition of calcium mobilization by FLIPR assay; type: functional, cell-based
Histamine H3 receptor [2] = molecular target: T1, Histamine H3 receptor; test: Antagonist activity at human histamine H3 receptor in human T-REx-293 cells assessed as inhibition of basal GTPgammaS binding at 10 uM after 90 mins by scintillation counting analysis relative to control; type: functional, cell-based; details: HEK293
[3] = molecular target: Histamine H2 receptor (Homo sapiens) (UniProt P25021); test: Antagonist activity at human histamine H2 receptor assessed as inhibition of calcium mobilization at 10 uM by FLIPR assay relative to control; type: functional
[4] = molecular target: Melanin-concentrating hormone receptor 1 (Homo sapiens) (UniProt Q99705); test: Antagonist activity at human MCH1R assessed as inhibition of calcium mobilization at 10 uM by FLIPR assay relative to control; type: functional
[5] = molecular target: Histamine H1 receptor (Homo sapiens) (UniProt P35367); test: Antagonist activity at human histamine H1 receptor assessed as inhibition of calcium mobilization at 10 uM by FLIPR assay relative to control; type: functional
Histamine receptor H3 = Histamine receptor H3 (Macaca mulatta, UniProt Q865E1); test: Displacement of [3H]N-alpha-methylhistamine from cloned rhesus monkey histamine H3 receptor transfected in CHO cells after 1 hr by scintillation counting analysis; type: cell-based
Histamine H3 receptor [6] = molecular target: Histamine H3 receptor (Rattus norvegicus, UniProt Q9QYN8); test: Displacement of [3H]N-alpha-methylhistamine from cloned rat histamine H3 receptor transfected in CHO cells after 1 hr by scintillation counting analysis; type: cell-based
Histamine H3 receptor [7] = molecular target: T1, Histamine H3 receptor; test: Displacement of [3H]N-alpha-methylhistamine from cloned human histamine H3 receptor transfected in CHO cells after 1 hr by scintillation counting analysis; type: cell-based
hERG (KCNH2) = hERG (KCNH2) (Homo sapiens, UniProt Q12809); test: Inhibition of human ERG at 10 uM relative to control
[8] = Solubility of the compound; type: physicochemical
[9] = Drug metabolism in rat liver microsomes; type: ADME, Microsome; details: read-out: Drug metabolism
[10] = Drug metabolism in mouse liver microsomes; type: ADME, Microsome; details: read-out: Drug metabolism
[11] = Drug metabolism in human liver microsomes; type: ADME, Microsome; details: read-out: Drug metabolism

Sequence of Histamine H2 receptor (Homo sapiens) (P25021 whole entry): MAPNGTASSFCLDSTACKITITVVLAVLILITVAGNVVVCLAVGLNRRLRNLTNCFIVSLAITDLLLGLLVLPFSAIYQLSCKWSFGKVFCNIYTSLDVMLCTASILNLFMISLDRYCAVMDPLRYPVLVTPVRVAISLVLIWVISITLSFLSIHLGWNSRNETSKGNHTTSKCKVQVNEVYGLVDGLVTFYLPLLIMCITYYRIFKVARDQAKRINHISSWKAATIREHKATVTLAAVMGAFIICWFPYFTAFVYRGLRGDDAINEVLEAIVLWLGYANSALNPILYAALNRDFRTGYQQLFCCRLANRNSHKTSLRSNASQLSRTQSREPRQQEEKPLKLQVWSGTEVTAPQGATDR
Sequence of Histamine H3 receptor (Rattus norvegicus, UniProt Q9QYN8) (Q9QYN8 whole entry): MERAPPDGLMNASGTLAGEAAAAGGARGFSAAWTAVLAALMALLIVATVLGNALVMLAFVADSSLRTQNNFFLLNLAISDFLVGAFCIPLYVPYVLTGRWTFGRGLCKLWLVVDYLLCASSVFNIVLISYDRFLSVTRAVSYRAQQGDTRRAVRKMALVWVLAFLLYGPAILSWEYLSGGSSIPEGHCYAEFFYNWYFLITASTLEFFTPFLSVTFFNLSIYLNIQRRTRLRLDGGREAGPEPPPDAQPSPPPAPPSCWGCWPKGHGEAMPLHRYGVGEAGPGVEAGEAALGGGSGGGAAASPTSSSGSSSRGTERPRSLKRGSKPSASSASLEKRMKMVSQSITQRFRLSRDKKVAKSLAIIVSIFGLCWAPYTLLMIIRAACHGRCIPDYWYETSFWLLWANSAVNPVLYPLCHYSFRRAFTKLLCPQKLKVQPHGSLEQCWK
Sequence of Melanin-concentrating hormone receptor 1 (Homo sapiens) (Q99705 whole entry): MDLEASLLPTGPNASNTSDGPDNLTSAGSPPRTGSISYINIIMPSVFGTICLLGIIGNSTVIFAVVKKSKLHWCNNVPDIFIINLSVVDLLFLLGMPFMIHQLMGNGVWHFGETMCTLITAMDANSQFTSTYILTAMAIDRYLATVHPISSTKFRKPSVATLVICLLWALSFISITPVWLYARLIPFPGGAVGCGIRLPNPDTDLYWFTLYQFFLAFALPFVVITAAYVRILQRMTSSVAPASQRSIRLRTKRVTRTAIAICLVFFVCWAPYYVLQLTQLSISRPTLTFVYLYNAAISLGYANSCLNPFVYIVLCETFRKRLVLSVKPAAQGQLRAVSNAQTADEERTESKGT
Sequence of Histamine receptor H3 (Q865E1 whole entry): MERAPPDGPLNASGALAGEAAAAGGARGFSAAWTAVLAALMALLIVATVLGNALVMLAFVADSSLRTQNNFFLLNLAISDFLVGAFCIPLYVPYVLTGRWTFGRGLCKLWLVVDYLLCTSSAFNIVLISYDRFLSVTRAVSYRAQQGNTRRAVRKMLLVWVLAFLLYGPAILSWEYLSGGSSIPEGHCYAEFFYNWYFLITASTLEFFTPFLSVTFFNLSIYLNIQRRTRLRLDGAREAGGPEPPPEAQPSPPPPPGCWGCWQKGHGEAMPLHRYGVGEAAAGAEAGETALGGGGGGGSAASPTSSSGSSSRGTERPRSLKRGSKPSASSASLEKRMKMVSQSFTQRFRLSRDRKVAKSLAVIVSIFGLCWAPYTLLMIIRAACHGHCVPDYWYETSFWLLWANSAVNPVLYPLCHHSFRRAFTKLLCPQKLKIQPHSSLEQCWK
Sequence of Histamine H1 receptor (Homo sapiens) (P35367 whole entry): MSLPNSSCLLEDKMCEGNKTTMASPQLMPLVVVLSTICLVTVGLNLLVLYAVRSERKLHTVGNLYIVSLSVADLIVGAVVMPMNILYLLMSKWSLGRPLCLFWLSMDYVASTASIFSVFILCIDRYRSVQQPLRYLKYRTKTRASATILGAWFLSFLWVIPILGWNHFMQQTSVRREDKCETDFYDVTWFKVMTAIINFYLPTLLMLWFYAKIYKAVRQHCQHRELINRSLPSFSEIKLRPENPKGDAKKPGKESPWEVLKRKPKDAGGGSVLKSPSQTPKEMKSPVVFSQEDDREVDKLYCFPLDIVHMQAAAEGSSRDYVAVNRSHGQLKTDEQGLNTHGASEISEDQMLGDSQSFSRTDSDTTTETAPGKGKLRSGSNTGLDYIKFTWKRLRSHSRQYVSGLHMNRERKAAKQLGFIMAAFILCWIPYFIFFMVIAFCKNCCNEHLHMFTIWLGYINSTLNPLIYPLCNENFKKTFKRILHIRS
T1 sequence (Q9Y5N1 whole entry): as the sequence (Q865E1 whole entry) above, with N148D, G240A, A282V, T289A, A290T, A300V, Q442H counted along it
Sequence of hERG (KCNH2) (Q12809 whole entry): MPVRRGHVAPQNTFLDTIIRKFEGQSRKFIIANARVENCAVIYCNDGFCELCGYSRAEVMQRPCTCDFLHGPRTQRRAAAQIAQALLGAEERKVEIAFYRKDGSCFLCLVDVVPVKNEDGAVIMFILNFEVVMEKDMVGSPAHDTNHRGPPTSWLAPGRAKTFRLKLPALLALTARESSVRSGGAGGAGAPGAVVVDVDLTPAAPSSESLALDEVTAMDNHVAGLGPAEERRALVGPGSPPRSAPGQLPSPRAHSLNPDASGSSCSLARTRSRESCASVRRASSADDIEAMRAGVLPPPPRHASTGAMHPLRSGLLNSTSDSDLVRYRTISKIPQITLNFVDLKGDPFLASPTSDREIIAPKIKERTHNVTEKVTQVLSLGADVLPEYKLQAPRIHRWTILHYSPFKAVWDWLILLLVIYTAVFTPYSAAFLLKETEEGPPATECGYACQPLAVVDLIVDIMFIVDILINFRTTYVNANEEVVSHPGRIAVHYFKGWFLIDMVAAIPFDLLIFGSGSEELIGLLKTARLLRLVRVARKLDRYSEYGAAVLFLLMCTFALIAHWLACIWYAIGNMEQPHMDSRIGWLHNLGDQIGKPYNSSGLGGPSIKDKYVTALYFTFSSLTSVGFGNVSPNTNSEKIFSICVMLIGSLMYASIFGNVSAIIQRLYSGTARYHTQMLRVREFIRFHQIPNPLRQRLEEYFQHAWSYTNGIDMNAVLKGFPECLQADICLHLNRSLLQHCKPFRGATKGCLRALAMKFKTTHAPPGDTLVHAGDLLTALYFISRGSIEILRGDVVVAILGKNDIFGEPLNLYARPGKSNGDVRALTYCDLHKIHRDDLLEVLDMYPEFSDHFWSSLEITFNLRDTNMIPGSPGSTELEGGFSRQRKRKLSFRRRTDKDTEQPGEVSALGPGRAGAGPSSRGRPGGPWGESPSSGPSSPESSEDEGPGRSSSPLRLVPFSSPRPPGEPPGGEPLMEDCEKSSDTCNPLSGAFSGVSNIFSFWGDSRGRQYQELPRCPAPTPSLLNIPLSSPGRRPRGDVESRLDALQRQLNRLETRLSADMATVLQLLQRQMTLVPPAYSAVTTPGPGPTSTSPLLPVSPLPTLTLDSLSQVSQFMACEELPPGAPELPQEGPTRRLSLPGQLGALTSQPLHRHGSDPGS

Structure (SMILES)	IC50 (Histamine H3 receptor [1])	inhibition (Histamine H3 receptor [2])	inhibition [3]	inhibition [4]	inhibition [5]	also measured
CN(C)CCOc1ccc(NC(=O)Nc2ccc(Cl)cc2)cc1	16.4 nM	99%				
Cc1cc(NC(=O)NCc2cccs2)ccc1N1CCC(N2CCCC2C)C1 (configuration not stated)	0.2 nM	125%	< 40%	< 40%	< 40%	
Cc1cc(N2CCC(N3CCCC3C)C2)ccc1NC(=O)N1CCN(C)CC1 (configuration not stated)	0.8 nM	120%	< 40%	< 40%	< 40%	
CN(C)CCOc1ccc(NC(=O)Nc2ccc(F)cc2F)cc1	149 nM	102%				
Cc1cc(NC(=O)NC2CCCCC2)ccc1N1CCC(N2CCCC2C)C1 (configuration not stated)	0.2 nM	130%	< 40%	< 40%	< 40%	
Cc1cccc(NC(=O)Nc2ccc(OCCN(C)C)cc2)c1C	73.1 nM	94%				
O=C(Nc1ccc(Cl)cc1)Nc1ccc(OCCN2CCCCC2)cc1	27.5 nM	105%				
Cc1cc(NC(=O)Nc2ccc(Oc3ccccc3)cc2)ccc1N1CCC(N2CCCC2C)C1 (configuration not stated)	0.6 nM	126%	< 40%	< 40%	< 40%	Ki (Histamine receptor H3): 115 nM
O=C(Nc1ccc(OCCCN2CCCCC2)cc1)Nc1ccc(F)cc1F	0.5 nM	128%				Ki (Histamine H3 receptor [6]): 33 nM; Ki (Histamine receptor H3): 3.4 nM; Ki (Histamine H3 receptor [7]): 52 nM
CC(=O)N1CCN(C(=O)Nc2ccc(N3CCC(N4CCCC4C)C3)cc2)CC1 (configuration not stated)	0.5 nM	127%	< 40%	< 40%	< 40%	
CN(C)CCc1ccc(NC(=O)Nc2ccc(CCN(C)C)cc2)cc1	6.5 nM	94.7%				
CCN(CC)CCOc1ccc(NC(=S)Nc2ccc(OCC(C)C)cc2)cc1	0.6 nM	129%				Ki (Histamine H3 receptor [6]): 39.9 nM; Ki (Histamine receptor H3): 15.7 nM; Ki (Histamine H3 receptor [7]): 16.8 nM
CC1CCCN1C1CCN(c2ccc(NC(=O)NCc3cccs3)cc2)C1 (configuration not stated)	0.1 nM	129%	< 40%	< 40%	< 40%	Ki (Histamine receptor H3): 1.9 nM
CC1CCCN1C1CCN(c2ccc(NC(=O)N3CCN(C)CC3)cc2)C1 (configuration not stated)	0.2 nM	132%	< 40%	< 40%	< 40%	
CC1CCCN1C1CCN(c2ccc(NC(=O)N3CCCCC3)cc2)C1 (configuration not stated)	0.3 nM	108%	< 40%	< 40%	< 40%	
Cc1cc(NC(=O)Nc2cc(Cl)cc(Cl)c2)ccc1N1CCC(N2CCCC2C)C1 (configuration not stated)	3.1 nM	103%	< 40%	< 40%	< 40%	
Cc1cc(N2CCC(N3CCCC3C)C2)ccc1NC(=O)NC1CCCCC1 (configuration not stated)	0.2 nM	110%	< 40%	< 40%	< 40%	
Cc1cc(N2CCC(N3CCCC3C)C2)ccc1NC(=O)Nc1cc(Cl)cc(Cl)c1 (configuration not stated)	0.9 nM	126%	< 40%	< 40%	< 40%	inhibition at 10 µM (hERG (KCNH2)): 74%; solubility [8]: 10.5 µg/mL (≈ 23.5 µM)
CCN(CC)CCOc1ccc(NC(=O)Nc2ccc(F)cc2F)cc1	111 nM	117%				

Structure (SMILES)	IC50 (Histamine H3 receptor [1])	inhibition (Histamine H3 receptor [2])	inhibition [3]	inhibition [4]	inhibition [5]	also measured
CC1CCCN1C1CCN(c2ccc(NC(=O)NC3CCCCC3)cc2)C1 (configuration not stated)	0.1 nM	122%	< 40%	< 40%	< 40%	
CC(=O)N(C)C1CCN(C(=O)Nc2ccc(N3CCC(N4CCCC4C)C3)c(C)c2)C1 (configuration not stated)	1.1 nM	118%	< 40%	< 40%	< 40%	
Cc1cccc(NC(=O)Nc2ccc(OCCCN(C)C)cc2)c1C	14.7 nM	125%				
CCOc1ccc(C)cc1NC(=O)Nc1ccc(OCCN(CC)CC)cc1	9.1 nM	107%				
CCN(CC)CCOc1ccc(NC(=O)Nc2c(Cl)cccc2Cl)cc1	1 nM	116%				
Cc1cc(NC(=O)NCc2cc(Cl)cc(Cl)c2)ccc1N1CCC(N2CCCC2C)C1 (configuration not stated)	1.1 nM	130%	< 40%	< 40%	< 40%	
O=C(Nc1ccc(Cl)cc1)Nc1ccc(OCCCN2CCCCC2)cc1	0.7 nM	119%				
CC1CCCN1C1CCN(c2ccc(NC(=O)Nc3cc(Cl)cc(Cl)c3)cc2)C1 (configuration not stated)	1.2 nM	103%	< 40%	< 40%	< 40%	
CC1CCCN1C1CCN(c2ccc(NC(=O)Nc3ccc(Oc4ccccc4)cc3)cc2)C1 (configuration not stated)	1.4 nM	113%	< 40%	< 40%	< 40%	Ki (Histamine receptor H3): 46.8 nM
CC1CCCN1C1CCN(c2ccc(NC(=O)N3CCN(c4ccccc4)CC3)cc2)C1 (configuration not stated)	0.4 nM	122%	< 40%	< 40%	< 40%	
Cc1c(Cl)cc(NC(=O)Nc2ccc(OCCCN3CCCCC3)cc2)cc1Cl	0.2 nM	133%				Ki (Histamine H3 receptor [6]): 135 nM; metabolised [9]: 36%; metabolised [10]: 34%; Ki (Histamine receptor H3): 18.2 nM; Ki (Histamine H3 receptor [7]): 112 nM; metabolised [11]: 10%; solubility [8]: 6 µg/mL (≈ 13.7 µM)
O=C(Nc1ccc(OCCN2CCCCC2)cc1)Nc1ccc(F)cc1F	40.5 nM	115%				
CC(=O)N(C)C1CCN(C(=O)Nc2ccc(N3CCC(N4CCCC4C)C3)cc2)C1 (configuration not stated)	1.1 nM	109%	< 40%	< 40%	< 40%	
CC1CCCN1C1CCN(c2ccc(NC(=O)NCc3cc(Cl)cc(Cl)c3)cc2)C1 (configuration not stated)	0.2 nM	144%	< 40%	< 40%	< 40%	Ki (Histamine receptor H3): 7.1 nM
O=C(Nc1ccc(OCCCN2CCCCC2)cc1)Nc1cc(Cl)cc(Cl)c1	0.5 nM	125%	< 40%	< 40%	< 40%	Ki (Histamine receptor H3): 3.4 nM
CCN(CC)CCOc1ccc(NC(=O)Nc2ccc(Cl)cc2Cl)cc1	39.1 nM	118%				
CCN(CC)CCCOc1ccc(NC(=O)Nc2ccc(F)cc2F)cc1	7.9 nM	124%				
Cc1cc(NC(=O)N2CCN(C)CC2)ccc1N1CCC(N2CCCC2C)C1 (configuration not stated)	1.1 nM	118%	< 40%	< 40%	< 40%	
CC(=O)N1CCN(C(=O)Nc2ccc(N3CCC(N4CCCC4C)C3)c(C)c2)CC1 (configuration not stated)	2.3 nM	115%	< 40%	< 40%	< 40%	
